Source: patent publication US7138491B2, “Carboline-3-carboxylic acid modified related sequences of Ala-Arg-Pro-Ala-Lys, their synthesis and use as thromobolytic agent” (Guangzhou Bai Yun Shan Pharmaceutical Co., Ltd., priority 2003, dated 2006)
Marks after values point to notes of the source that are not given here. Ends that are not written are not given here.

Columns and labels:
fibrin plate = assay: In vitro fibrinolytic lysis on fibrin plate (fibrinogen-agarose); type: biochemical, rabbit; conditions: dosage per well differs per compound (0.8-2.2 μg; UK 5 IU); n = 6; NS control 21.01 ± 9.26
Experimental: The plates were prepared by mixing equal volumes of 0.3% rabbit fibrinogen and 0.95% agarose solutions, both dissolved in 50 mM of barbital buffer (pH 7.8, contained 1.66 mM of CaCl2, 0.68 mM of MgCl2 and 93.96 mM of NaCl)^[6]. The fibrinogen-agarose mixture was coagulated with […] thrombin (100 IU: ml) in the plastic dishes (its diameter is 90 mm and the depth of the fibrin plate is 1 mm). After 30 min at 4° C. an adequate number of wells, 5 mm in diameter, were perforated. To determine fibrinolytic activity […] aliquots of the tested pseudopeptides were added to each well, the plate was incubated, and areas of lysis were quantified as described for the regular fibrin plates.

[1] = tested on: rabbit euglobulin fraction; assay: In vitro euglobulin clot lysis time (ECLT); type: biochemical; conditions: dosage differs per compound (1.3-6.7 μg; UK 5 IU); 96 well microtiter plate; n = 6; NS control 200.01 ± 15.26
Experimental: The rabbit euglobulin fraction was prepared according to the literature^[6]. Plasma diluted […] in distilled water was precipitated at pH 5.7 with acetic acid (0.25%). After 30 min at 4° C. the suspension was centrifuged at 2000 g for 15 min and the precipitate was resuspended to the initial plasma volume with 50 mM barbital buffer (pH 7.8, contained 1.66 mM of CaCl2, 0.68 mM of MgCl2 and 93.96 mM of NaCl). Euglobulin clot lysis time (ECLT) of the tested pseudopeptide was measured using a 96 well microtiter plate^[7] and the data are listed in Table 2.

thrombus = assay: In vivo thrombolytic activity, thrombus on steel helix in extracorporeal circulation; conditions: male Wistar rats; injected; dose differs per compound (3.1-8.2 mg/kg; UK 20000 IU); blood circulated 90 min; n = 10; NS control 12.31 ± 2.57
Experimental: Male Wistar rats weighing 200–300 g (purchased from Animal Center of Peking University) were anesthetized with pentobarbital sodium (80.0 mg/kg, ip). The right carotid artery and left vein jugular of the animals were separated. To the glass tube filled with artery blood (1.0 ml) from the right carotid artery of the animal a stainless steel filament helix (15 circles; L, 15 mm; D, 1.0 mm) was put immediately. After 15 minutes the helix with thrombus was carefully taken out and weighted exactly, which was put into the middle polyethylene tube. The polyethylene tube was full with heparin sodium (50 IU/ml of NS) and one end was inserted into the left jugular vein. Heparin sodium was injected via the other end of the polyethylene tube as the anticoagulant, following which the tested pseudopeptide was injected. The blood was circulated through the polyethylene tube for 90 min, after which the helix was taken out and weighted accurately.

Substance: 3S-1,2,3,4-tetrahydro-β-carboline-3-carboxyl-Lys-Arg-Pro-Ala-Lys-OH (KRPAK-OH; not fully specified (N-terminus); printed as 3S-1,2,3,4-tetrahydro-β-carboline-3-carboxyl-Lys-Arg-Pro-Ala-Lys-OH) [compound 13]
- Effect of the pseudopeptides on fibrin plate, areas of lysis, x ± SD (fibrin plate): 24.01 ± 10.05 mm^2
- Euglobulin clot lysis time, x ± SD [1]: 214.11 ± 32.67 min
- The reduction of thrombolytic mass, x ± SD (thrombus): 14.11 ± 2.67 mg

Substance: 3S-1,2,3,4-tetrahydro-β-carboline-3-carboxyl-Pro-Ala-Lys-OH [compound 20]
- Effect of the pseudopeptides on fibrin plate, areas of lysis, x ± SD (fibrin plate): 19.41 ± 11.71 mm^2
- Euglobulin clot lysis time, x ± SD [1]: 209.31 ± 31.57 min
- The reduction of thrombolytic mass, x ± SD (thrombus): 13.31 ± 0.0257 mg

Substance: 3S-(2-Ala-Arg-Pro)-1,2,3,4-tetrahydro-β-carboline-3-carboxylic acid [compound 28]
- Effect of the pseudopeptides on fibrin plate, areas of lysis, x ± SD (fibrin plate): 21.21 ± 11.11 mm^2
- Euglobulin clot lysis time, x ± SD [1]: 213.23 ± 31.58 min
- The reduction of thrombolytic mass, x ± SD (thrombus): 13.23 ± 2.58 mg

Substance: 3S-(2-Ala-Arg-Pro-Ala)-1,2,3,4-tetrahydro-β-carboline-3-carboxylic acid (ARPA; not fully specified (C-terminus)) [compound 27]
- Effect of the pseudopeptides on fibrin plate, areas of lysis, x ± SD (fibrin plate): 23.32 ± 9.99 mm^2
- Euglobulin clot lysis time, x ± SD [1]: 203.89 ± 29.67 min
- The reduction of thrombolytic mass, x ± SD (thrombus): 13.89 ± 2.67 mg

Substance: 3S-(2-Ala-Arg-Pro-Ala-Lys)-1,2,3,4-tetrahydro-β-carboline-3-carboxylic acid (ARPAK; not fully specified (C-terminus)) [compound 21]
- Effect of the pseudopeptides on fibrin plate, areas of lysis, x ± SD (fibrin plate): 119.70 ± 10.71^a mm^2
- Euglobulin clot lysis time, x ± SD [1]: 119.70 ± 23.71^a min
- The reduction of thrombolytic mass, x ± SD (thrombus): 19.7 ± 3.71^2) mg

Substance: 3S-(2-Arg-Arg-Pro-Ala-Lys)-1,2,3,4-tetrahydro-β-carboline-3-carboxylic acid (RRPAK; not fully specified (C-terminus)) [compound 16]
- Effect of the pseudopeptides on fibrin plate, areas of lysis, x ± SD (fibrin plate): 24.19 ± 10.08 mm^2
- Euglobulin clot lysis time, x ± SD [1]: 204.11 ± 32.87 min
- The reduction of thrombolytic mass, x ± SD (thrombus): 14.11 ± 2.87 mg

Substance: 3S-(2-Arg-Pro-Ala-Lys)-1,2,3,4-tetrahydro-β-carboline-3-carboxylic acid (RPAK; not fully specified (C-terminus)) [compound 29]
- Effect of the pseudopeptides on fibrin plate, areas of lysis, x ± SD (fibrin plate): 126.55 ± 9.98^a mm^2
- Euglobulin clot lysis time, x ± SD [1]: 104.40 ± 27.51^a min
- The reduction of thrombolytic mass, x ± SD (thrombus): 24.40 ± 2.51^a,d mg

Substance: 3S-(2-Asn-Arg-Pro-Ala-Lys)-1,2,3,4-tetrahydro-β-carboline-3-carboxylic acid (NRPAK; not fully specified (C-terminus)) [compound 25]
- Effect of the pseudopeptides on fibrin plate, areas of lysis, x ± SD (fibrin plate): 20.84 ± 10.77 mm^2
- Euglobulin clot lysis time, x ± SD [1]: 217.27 ± 30.57 min
- The reduction of thrombolytic mass, x ± SD (thrombus): 17.27 ± 3.57^2) mg

Substance: 3S-(2-Gln-Arg-Pro-Ala-Lys)-1,2,3,4-tetrahydro-β-carboline-3-carboxylic acid (QRPAK; not fully specified (C-terminus)) [compound 24]
- Effect of the pseudopeptides on fibrin plate, areas of lysis, x ± SD (fibrin plate): 133.89 ± 9.99^a mm^2
- Euglobulin clot lysis time, x ± SD [1]: 96.88 ± 29.21^1a min
- The reduction of thrombolytic mass, x ± SD (thrombus): 22.88 ± 9.21^1) mg

Substance: 3S-(2-Gly-Arg-Pro-Ala-Lys)-1,2,3,4-tetrahydro-β-carboline-3-carboxylic acid (GRPAK; not fully specified (C-terminus)) [compound 22]
- Effect of the pseudopeptides on fibrin plate, areas of lysis, x ± SD (fibrin plate): 125.90 ± 11.15^a mm^2
- Euglobulin clot lysis time, x ± SD [1]: 98.02 ± 25.21^a min
- The reduction of thrombolytic mass, x ± SD (thrombus): 24.02 ± 5.21^1) mg

Substance: 3S-(2-Lys-Arg-Pro-Ala-Lys)-1,2,3,4-tetrahydro-β-carboline-3-carboxylic acid (KRPAK; not fully specified (C-terminus)) [compound 23]
- Effect of the pseudopeptides on fibrin plate, areas of lysis, x ± SD (fibrin plate): 19.87 ± 9.58 mm^2
- Euglobulin clot lysis time, x ± SD [1]: 213.98 ± 29.45 min
- The reduction of thrombolytic mass, x ± SD (thrombus): 13.98 ± 2.45 mg

Substance: 3S-(2-Pro-Ala-Lys)-1,2,3,4-tetrahydro-β-carboline-3-carboxylic acid [compound 30]
- Effect of the pseudopeptides on fibrin plate, areas of lysis, x ± SD (fibrin plate): 139.39 ± 9.52^a mm^2
- Euglobulin clot lysis time, x ± SD [1]: 96.56 ± 30.42^a min
- The reduction of thrombolytic mass, x ± SD (thrombus): 26.56 ± 2.42^b mg

Substance: H-ARPAK-OH [compound 1, H-Ala-Arg-Pro-Ala-Lys-OH]
- Effect of the pseudopeptides on fibrin plate, areas of lysis, x ± SD (fibrin plate): 119.12 ± 12.44^a mm^2
- Euglobulin clot lysis time, x ± SD [1]: 90.12 ± 17.64^a,b min
- The reduction of thrombolytic mass, x ± SD (thrombus): 18.84 ± 3.18^1)2) mg

Substance: H-Ala-Arg-Pro-Ala-OH (H-ARPA-OH) [compound 10]
- Effect of the pseudopeptides on fibrin plate, areas of lysis, x ± SD (fibrin plate): 31.01 ± 9.26 mm^2
- Euglobulin clot lysis time, x ± SD [1]: 214.01 ± 28.26 min
- The reduction of thrombolytic mass, x ± SD (thrombus): 14.01 ± 2.26 mg

Substance: H-Ala-Arg-Pro-OH [compound 9]
- Effect of the pseudopeptides on fibrin plate, areas of lysis, x ± SD (fibrin plate): 23.16 ± 9.05 mm^2
- Euglobulin clot lysis time, x ± SD [1]: 203.81 ± 29.50 min
- The reduction of thrombolytic mass, x ± SD (thrombus): 13.81 ± 2.50 mg

Substance: H-Arg-Arg-Pro-Ala-Lys-OH (H-RRPAK-OH) [compound 6]
- Effect of the pseudopeptides on fibrin plate, areas of lysis, x ± SD (fibrin plate): 33.77 ± 10.05 mm^2
- Euglobulin clot lysis time, x ± SD [1]: 213.31 ± 27.75 min
- The reduction of thrombolytic mass, x ± SD (thrombus): 13.31 ± 2.75 mg

Substance: H-Arg-Pro-Ala-Lys-OH (H-RPAK-OH) [compound 7]
- Effect of the pseudopeptides on fibrin plate, areas of lysis, x ± SD (fibrin plate): 125.33 ± 10.10^a mm^2
- Euglobulin clot lysis time, x ± SD [1]: 85.22 ± 20.40^a,b min
- The reduction of thrombolytic mass, x ± SD (thrombus): 18.22 ± 2.40^a mg

Substance: H-Asn-Arg-Pro-Ala-Lys-OH (H-NRPAK-OH) [compound 5]
- Effect of the pseudopeptides on fibrin plate, areas of lysis, x ± SD (fibrin plate): 22.66 ± 9.46 mm^2
- Euglobulin clot lysis time, x ± SD [1]: 212.88 ± 29.66 min
- The reduction of thrombolytic mass, x ± SD (thrombus): 12.88 ± 2.66 mg

Substance: H-Gln-Arg-Pro-Ala-Lys-OH (H-QRPAK-OH) [compound 4]
- Effect of the pseudopeptides on fibrin plate, areas of lysis, x ± SD (fibrin plate): 136.28 ± 10.62^a mm^2
- Euglobulin clot lysis time, x ± SD [1]: 86.28 ± 20.46^a,b min
- The reduction of thrombolytic mass, x ± SD (thrombus): 21.28 ± 3.46^1)2) mg

Substance: H-Gly-Arg-Pro-Ala-Lys-OH (H-GRPAK-OH) [compound 2]
- Effect of the pseudopeptides on fibrin plate, areas of lysis, x ± SD (fibrin plate): 125.90 ± 11.15^a mm^2
- Euglobulin clot lysis time, x ± SD [1]: 89.90 ± 20.05^a,b min
- The reduction of thrombolytic mass, x ± SD (thrombus): 25.90 ± 2.05^1) mg

Substance: H-Lys-Arg-Pro-Ala-Lys-OH (H-KRPAK-OH) [compound 3]
- Effect of the pseudopeptides on fibrin plate, areas of lysis, x ± SD (fibrin plate): 38.99 ± 9.06 mm^2
- Euglobulin clot lysis time, x ± SD [1]: 221.28 ± 23.46 min
- The reduction of thrombolytic mass, x ± SD (thrombus): 21.28 ± 3.46^1)2) mg

Substance: H-Pro-Ala-Lys-OH [compound 8]
- Effect of the pseudopeptides on fibrin plate, areas of lysis, x ± SD (fibrin plate): 138.06 ± 9.39^a mm^2
- Euglobulin clot lysis time, x ± SD [1]: 80.68 ± 20.34^a,b min
- The reduction of thrombolytic mass, x ± SD (thrombus): 23.68 ± 2.34^a mg
